# Results from patent US20250152743A1, “SYNPOPTOSIS CIRCUITS FOR PROGRAMMABLE CELL DEATH CONTROL” (California Institute of Technology, priority 2023, published 2025).
# “Also recorded” adds a separate entry of the source.
# Experiments:
# Type in all cases: cell-based, human
# HEK cells [1] = test: Q-VD-OPh on circuit-induced cell death, flow cytometry; details: Q-VD-OPh 30 μM
# Experimental: Then, because naturally occurring cell death can be modulated by small-molecule compounds, the effect of Q-VD-OPh, a caspase inhibitor, on synpoptosis circuits was investigated (FIG. 2C). […] It was also asked whether cells treated with synpoptosis circuits stain positive for TO-PRO-3, a dye that enters apoptotic cells through pannexin channels and pyroptotic cells through permeabilized membranes.
# On the day before transfection, HEK cells were seeded at a density of 0.3-0.6 million cells per well on a 12-well plate, 0.1-0.3 million cells per well on a 24-well plate, or 15,000-50,000 cells per well on a 96-well plate. The cells were allowed to attach to the plate overnight, for at least 8 hours. On the day of transfection, we treated the cells with purified DNA plasmids encoding circuit components. In addition to plasmids encoding circuit components, we often included a plasmid encoding a fluorescent co-transfection marker, at roughly 50 ng DNA per well on a 24-well plate. Given the different number of molecular components in each synthetic circuit and their various relative ratios, the total amount of DNA ranged from 50 to 1 μg per well on a 24-well plate, and was scaled by 0.5 or 4 when other 12-well or 96-well plates were used, respectively. […]
# HEK293FT cells [2] = test: Co-transfection time course, cell death every 24 h over 4 days; details: P3/P4-zipper reconstituted TEVP
# Experimental: Moreover, it was evaluated if some of these mutations affect the maximal caspase activation accessible and the time dependency between caspase activation and cell death by co-transfecting (i) input proteases (P3/P4-zipper reconstituted TEVP as a positive control, split TEVP without reconstitution domain as a negative control, or NeoR to evaluate caspase baseline activity; all with IRES-BFP to enable expression tracking) and (ii) output caspase (“ENLYFQS” (SEQ ID NO: 2)/“ENLYFQQ” (SEQ ID NO: 4)/“ENLFFQQ” (SEQ ID NO: 7)+co-transfected GFP for expression tracking) in HEK293FT cells and measuring cell death every 24 h over the course of 4 days.
# HEK293FT cells [3] = test: Polytransfection of input proteases and caspase cleavage-site variants, Annexin staining; details: order, decreasing: ENLFFQQ; ENLFFQY; ENLYFQS+TEVP-cleavable DHFR; ENLFFQS~ENLYFQY~ENLYFQQ; ENLYFQS; both TEVP and TVMVP cleavage site
# From the text: The cleavage efficiency of proteases is known to depend on corresponding accessible cleavage sites. Mutations to native protease cleavage sites can slow (i) the recruitment of substrates to the protease active site, (ii) catalytic reaction steps, or (iii) the release of the substrate from the protease. As described herein, this property to modulate cell death executioner activation thresholds. Specifically, we surveyed the following constructs with modified protease cleavage sites across a wide range of possible cell death executioner and input protease expression regimes:
# Caspase 3 with ENLYFQS TEVP protease cleavage site (native protease cleavage site is ENLYFQG/S, SEQ ID NOs: 1-2), which serves as a control; Caspase 3 with ENLYFQY (SEQ ID NO: 3) TEVP protease cleavage site; Caspase 3 with ENLYFQQ (SEQ ID NO: 4) TEVP protease cleavage site; Caspase 3 with ENLFFQS (SEQ ID NO: 5) TEVP protease cleavage site; Caspase 3 with ENLFFQY (SEQ ID NO: 6) TEVP protease cleavage site; Caspase 3 with ENLFFQQ (SEQ ID NO: 7) TEVP protease cleavage site; Caspase 3 with both native TEVP and TVMVP cleavage sites separated by linker; Caspase 3 with native TEVP cleavage site fused to C-terminal TEVP-cleavable DHFR degron.
# To evaluate how the mutated protease cleavage sites affect Caspase 3 activation, we polytransfected (i) input proteases (P3/P4-zipper reconstituted TEVP as a positive control, split TEVP without reconstitution domain as a negative control, or NeoR to evaluate caspase baseline activity; all with IRES-BFP to enable expression tracking) and (ii) output caspase (caspase+co-transfected GFP for expression tracking) in HEK293FT cells. Annexin staining as described above in Example 1 was used to quantify cell death.
# HEK cells [4] = test: Transient DNA transfection of HEK cells, Annexin/Sytox staining, flow cytometry; details: tev, tvmv and hcv sites
# Experimental: HEK cells were transiently co-transfected with DNA encoding the circuits, often along with Cherry, a fluorescent protein marker, and cells were analyzed by flow cytometry 16 to 24 hours later. To quantify cell death, the cells were strained with Annexin, Sytox, or both. Annexin stains apoptotic cells by binding to phosphatidylserine exposed on the outer leaflet, and pyroptotic cells by binding to phosphatidylserine in the inner leaflet after membrane permeabilization. In contrast, Sytox, a membrane-impermeable dye, primarily stains pyroptotic cells. Therefore, apoptotic cells are typically Annexin-high and Sytox-low, while pyroptotic cells are Annexin-high and Sytox-high (FIG. 7B). For simplicity, in experiments involving only a single death mode, a single relevant dye was often used. To focus on cells influenced by the circuits, the fraction of Annexin- or Sytox-positive cells was calculated after gating on the fluorescent co-transfection marker (FIG. 7C).
# On the day before transfection, HEK cells were seeded at a density of 0.3-0.6 million cells per well on a 12-well plate, 0.1-0.3 million cells per well on a 24-well plate, or 15,000-50,000 cells per well on a 96-well plate. The cells were allowed to attach to the plate overnight, for at least 8 hours. On the day of transfection, we treated the cells with purified DNA plasmids encoding circuit components. […]
Molecule,maximal caspase activation / maximal fraction of dead cells (HEK293FT cells [2]),input/output expression required for caspase activation (activation threshold) (HEK293FT cells [3]),also measured
"CC(C)[C@H](NC(=O)c1ccc2ccccc2n1)C(=O)N[C@@H](CC(=O)O)C(=O)COc1c(F)cccc1F [Q-VD-OPh, Quinoline-Val-Asp-Difluorophenoxymethylketone]",,,apoptosis induced by the caspase-3 circuit (HEK cells [1]): suppressed circuit-induced apoptosis; also recorded: markedly attenuated apoptosis; pyroptosis mediated by the GSDMA circuit (HEK cells [1]): did not affect pyroptosis
ENLFFQQ: caspase 3 with modified TEVP cleavage site (left off: small tags and cut ends),reduces the maximum activation to a degree where the complete killing of the cell population is not possible anymore,requires the highest input/output expression for activation,
ENLFFQY: caspase 3 with modified TEVP cleavage site (left off: small tags and cut ends),,in decreasing order,
ENLYFQQ: caspase 3 with modified TEVP cleavage site (left off: small tags and cut ends),comparable maximal fraction of dead cells,in decreasing order,
ENLYFQY: caspase 3 with modified TEVP cleavage site (left off: small tags and cut ends),,in decreasing order,
"hepatitis C virus protease [HCVP, reference compound]",,,activation of cognate engineered GSDMs containing the cleavage sites (HEK cells [4]): orthogonally activated their cognate engineered GSDMs
